# According to patent US9416347B2, “Method of treating bacterial contamination in a microalgae culture with pH shock” (Heliae Development LLC, priority 2014, dated 2016):
# Structures can show the parent of a compound that is named as a salt. Where two headings read alike, the source gives them in different places.
# Tests used:
# [1] = tested on: Vampirovibrio chlorellavorus; details: culture receiving the second pH treatment, 85% before treatment
# Source text: (§1) Some bacteria in the microalgae culture may attach to the cell wall of the microalgae, eventually lysing the cell wall of the microalgae and killing the microalgae. […] An example of bacteria known to attach to microalgae is Vampirovibrio chlorellavorus.
# Samples were taken every two days to determine the cell dry weight (g/L) of the cultures.
# Chlorella sp. [2] = details: pH lowered from about 7.5 to 3.5 for 15 minutes, raised back with 5M NaOH
# Method: The first 400 ml culture was maintained as an untreated control at a pH of about 7.5. […] The pH treatments were applied directly to the cultures, without previous concentration of the microalgae or subsequent dilution through inoculation into fresh culture media. All cultures were incubated with shaking at 100 rpm in 5% carbon dioxide and 25° C. […] 100 μM photon/m^2 s of light was also provided to create mixotrophic growth conditions. The cultures were monitored for 4 days (96 hours with dry weight samples taken at 0, 48, and 96 hours). Live bacteria count samples were taken at 0 and 48 hours, and quantified using aerobic colony forming units (CFU) obtained from plate counts utilizing Petrifilm available from 3M (St. Paul, Minn.). A bacteria to microalgae ratio was also quantified using guava flow cytometry.
# [3] = tested on: live bacteria in Chlorella culture; details: for bacteria count: pH 3.5 with HCl (37%) for 15 minutes, open raceway pond
# Cytophaga sp. = details: pH treated versus untreated culture, over the life of the cultures
# [4] = tested on: bacteria attached to Chlorella
# Source text: as §1
# Chlorella = details: pH 3.5 with HCl (37%) for 15 minutes, open raceway pond
# Chlorella sp. [5] = details: culture at 1,029 mg/L acetate, pH 3.5 for 15 minutes, returned to 7.5 with 2 M NaOH
# Method: The pH treated culture samples were maintained at the culture pH of 3.5 for 15 minutes before returning the culture pH to 7.5 by adding 2 M NaOH.
# The pH treatment was applied directly into the culture, without previous concentration or subsequent dilution through inoculation into a fresh media. All cultures were incubated with shaking at 100 rpm in 5% carbon dioxide and 25° C. […] 100 μM photon/m^2 s of light was also provided to create mixotrophic growth conditions. The cultures were monitored for 4 days (96 hours with dry weight samples taken at 0, 48, and 96 hours). Residual acetate analyses were carried at the end of the experiment.
# Chlorella sp. [6] = details: for cell dry weight: second pH treatment 7.5 to 3.5 with HCl (18%) for 15 minutes, raised with 4 M NaOH
smiles,measurement,setting,value
"Cl [HCl, hydrochloric acid]",bacteria attachment level,[1]; day 4 (96 h),about 4.5%
same,bacteria attachment,[1]; within 48 hours,0%
same,cell dry weight,Chlorella sp. [2]; 0 h,0.80 ± 0.03 g/L
same,cell dry weight,Chlorella sp. [2]; 48 h,2.54 ± 0.00 g/L
same,cell dry weight,Chlorella sp. [2]; 96 h,3.78 ± 0.00 g/L
same,total bacteria live count lower than the untreated culture,[3]; immediately following treatment,approximately 2 logs
same,bacteria count,[3]; 0 h,4.00E+04 CFU
same,bacteria count,[3]; 24 h,1.50E+07 CFU
same,bacteria count,[3]; 48 h,1.20E+08 CFU
same,bacteria count,[3]; 72 h,2.20E+08 CFU
same,bacteria count,[3]; 96 h,1.30E+08 CFU
same,bacteria count,[3]; 120 h,1.20E+08 CFU
same,bacteria count,[3]; 144 h,1.50E+08 CFU
same,Cytophaga sp. detection by qPCR,Cytophaga sp.,detected in the untreated culture only
same,time bacterial attachment remained below 10%,[4]; pH treated culture,over 100 hours
same,bacterial attachment in the pH treated culture,"[4]; within 12 hours, drop from about 50%",under 10%
same,cell dry weight,"Chlorella; raised to 8.5 with NaOH, 0 h",1.2 g/L
same,cell dry weight,Chlorella; 11 h,1.4 g/L
same,cell dry weight,Chlorella; 24 h,1.6 g/L
same,cell dry weight,Chlorella; 35 h,2.2 g/L
same,cell dry weight,Chlorella; 48 h,2.5 g/L
same,cell dry weight,Chlorella; 59 h,3.5 g/L
same,cell dry weight,Chlorella; 72 h,4.0 g/L
same,cell dry weight,Chlorella; 83 h,4.8 g/L
same,cell dry weight,Chlorella; 96 h,5.1 g/L
same,cell dry weight,Chlorella; 107 h,5.4 g/L
same,cell dry weight,Chlorella; 120 h,5.7 g/L
same,cell dry weight,Chlorella; 131 h,6.1 g/L
same,cell dry weight,Chlorella; 144 h,6.1 g/L
same,cell dry weight,Chlorella; 155 h (after partial harvest),1.9 g/L
same,cell dry weight,Chlorella; 168 h,1.8 g/L
same,Cell Dry Weight,Chlorella sp. [5]; 0 h,0.89 ± 0.01 g/L
same,Cell Dry Weight,Chlorella sp. [5]; 48 h,1.88 ± 0.04 g/L
same,Cell Dry Weight,Chlorella sp. [5]; 96 h,2.58 ± 0.01 g/L
same,productive life of culture,Chlorella sp. [6]; culture that received one pH treatment,approximately 14 days
same,"productive life of culture (lasted until day, then discarded)",Chlorella sp. [6]; culture that received two pH treatments,≥ 20 days
same,cell dry weight,Chlorella sp. [6]; 0 h,1.05 (g/L)
same,cell dry weight,Chlorella sp. [6]; 48 h,2.79 g/L
same,cell dry weight,Chlorella sp. [6]; 96 h,3.87 g/L
same,cell dry weight,Chlorella sp. [6]; 144 h,4.79 g/L
